Assays:
Assay type in all cases: in vivo
[1] = tested on: Yellow Nutsedge (Cyperus esculentus); assay: Example 1 post-emergent turf plot test, nutsedge; settings: 0.75 lb ai/acre
Procedure: (§1) The experimental design used randomized plots with post-emergent treatment and three replications per test trial. The size of each experimental plot was 4 feet by 6 feet. The application of each test composition was performed with pressurized back-pack sprayers, calibrated to spray 200 gallons per acre. Test compositions containing sulfentrazone (DISMISS™ Turf Herbicide), quniclorac, (FACET® 75 DF herbicide) or a mixture of sulfentrazone and quinclorac in a 1:3 ratio, prepared as described above, were diluted with water to provide the appropriate test rate concentrations.
(§2) The control of weeds was evaluated in each experimental plot from 7 to 41 days after treatment (DAT) of each test rate. The results, shown as an average of the replications, were compared with results observed in untreated control plots in the same trials.

[2] = tested on: Smooth Crabgrass (Digitaria ischaemum); assay: Example 1 post-emergent turf plot test, 3 leaf/2 tiller crabgrass; settings: 0.75 lb ai/acre
Procedure: as §1, §2

[3] = tested on: yellow nutsedge (Cyperus esculentusi); assay: Example 4 post-emergence greenhouse pot test, nutsedge
Procedure: (§3) Test compositions containing sulfentrazone (75 DF formulation), quniclorac, (DRIVE® 75 DF Herbicide) or mixtures of sulfentrazone and quinclorac at ratios of 1:1 to 1:5, were diluted with water to provide the appropriate test rate concentrations. A nonionic surfactant (0.25%) was added to each test solution. The test weeds include crabgrass (Digitaria sp), Chickweed (Stellaria media), Hemp Sesbania (Sesbania exaltata), Kochia (Kochia scoparia), Ivyleaf Morningglory (Ipomoea hederacea), Redroot Pigweed (Amaranthus retroflexus) and yellow nutsedge (Cyperus esculentusi).
(§4) For post-emergence testing, three disposable 3 inch square pots for each rate of application of each herbicide were filled with a soil, comprised of peat moss, vermiculite, bark ash, pine bark, limestone and a wetting agent, to which 8 to 10 seeds were planted. The pots were placed in a greenhouse and watered daily, thus allowing the seeds to germinate and the foliage to develop for 22 days, 3 months for Kochia.
(§5) Pots designated for treatment were placed on a conveyor belt and the conveyor belt fed under a spray nozzle mounted about ten inches above the foliage. The spray of herbicidal solution was commenced and once stabilized; the pots were passed under the spray at a speed to receive a coverage equivalent of 30 gallons per acre. The application rates are those shown in Table 4 below for the individual herbicidal solutions and the mixture of sulfentrazone and quinclorac. The post-emergence pots were immediately placed in the green-house and not watered until 24 hours after treatment with the test solution. Thereafter they were regularly watered at ground level. The control of weeds was evaluated in each experimental test from 2 to 20 days after treatment (DAT). The results, shown as an average of the replications, were compared with results observed in untreated control pots in the same tests.
(§6) Percent control was determined by a method similar to the 0 to 100 rating system disclosed in “Research Methods in Weed Science,” 2nd ed., B. Truelove, Ed.; Southern Weed Science Society; Auburn University, Auburn, Ala., 1977.

[4] = tested on: White Clover (Trifolium repens); assay: Example 2 post-emergent turf plot test, clover; settings: 0.75 lb ai/acre
Procedure: as §1, with “quinclorac,” for “quniclorac,”, “one to three” for “1:3”
(§7) The control of weeds was evaluated in each experimental plot from 1 to 27 days after treatment (DAT) of each test rate. The results, shown as an average of the replications, were compared with results observed in untreated control plots in the same trials.

[5] = tested on: Field Violet (Viola arvensis); assay: Example 1 post-emergent turf plot test, violet; settings: 0.75 lb ai/acre
Procedure: as §1, §2

crabgrass (Digitaria sp) = assay: Example 4 post-emergence greenhouse pot test, crabgrass
Procedure: as §3, §4, §5, §6

Kochia (Kochia scoparia) = assay: Example 4 post-emergence greenhouse pot test, kochia
Procedure: as §3, §4, §5, §6

[6] = tested on: Blackseed Plantain (Plantago rugelii); assay: Example 2 post-emergent turf plot test, plantain; settings: 0.75 lb ai/acre
Procedure: as §1, with “quinclorac,” for “quniclorac,”, “one to three” for “1:3”
as §7

[7] = tested on: Ivyleaf Morningglory (Ipomoea hederacea); assay: Example 4 post-emergence greenhouse pot test, morningglory
Procedure: as §3, §4, §5, §6

[8] = tested on: Smooth Crabgrass (Digitaria ischaemum); assay: Example 2 post-emergent turf plot test, tillered crabgrass; settings: 0.75 lb ai/acre
Procedure: as §1, with “quinclorac,” for “quniclorac,”, “one to three” for “1:3”
as §7

## O=C(O)c1c(Cl)ccc2cc(Cl)cnc12 [B, 3,7-dichloro-8-quinolinecarboxylic acid]
[1]; 7 DAT
  Percent Control: 100%
[1]; 14 DAT
  Percent Control: 40%
[1]; 21 DAT
  Percent Control: 10%
[1]; 28 DAT
  Percent Control: 13%
[2]; 7 DAT
  Percent Control: 75%
[2]; 14 DAT
  Percent Control: 55%
[2]; 21 DAT
  Percent Control: 78%
[2]; 28 DAT
  Percent Control: 67%
[2]; 41 DAT
  Percent Control: 57%
[3]; 0.25 lb ai/acre, 2 DAT
  Percent Control: 0%
[3]; 0.25 lb ai/acre, 7 DAT
  Percent Control: 0%
[3]; 0.25 lb ai/acre, 14 DAT
  Percent Control: 0%
[3]; 0.25 lb ai/acre, 20 DAT
  Percent Control: 0%
[3]; 0.5 lb ai/acre, 2 DAT
  Percent Control: 0%
[3]; 0.5 lb ai/acre, 7 DAT
  Percent Control: 0%
[3]; 0.5 lb ai/acre, 14 DAT
  Percent Control: 0%
[3]; 0.5 lb ai/acre, 20 DAT
  Percent Control: 0%
[3]; 0.75 lb ai/acre, 2 DAT
  Percent Control: 0%
[3]; 0.75 lb ai/acre, 7 DAT
  Percent Control: 0%
[3]; 0.75 lb ai/acre, 14 DAT
  Percent Control: 0%
[3]; 0.75 lb ai/acre, 20 DAT
  Percent Control: 0%
[3]; 1.0 lb ai/acre, 2 DAT
  Percent Control: 0%
[3]; 1.0 lb ai/acre, 7 DAT
  Percent Control: 0%
[3]; 1.0 lb ai/acre, 14 DAT
  Percent Control: 0%
[3]; 1.0 lb ai/acre, 20 DAT
  Percent Control: 0%
[3]; 1.25 lb ai/acre, 2 DAT
  Percent Control: 0%
[3]; 1.25 lb ai/acre, 7 DAT
  Percent Control: 0%
[3]; 1.25 lb ai/acre, 14 DAT
  Percent Control: 0%
[3]; 1.25 lb ai/acre, 20 DAT
  Percent Control: 0%
[4]; 7 DAT
  Percent Control: 60%
[4]; 14 DAT
  Percent Control: 87%
[4]; 21 DAT
  Percent Control: 82%
[5]; 7 DAT
  Percent Control: 43%
[5]; 14 DAT
  Percent Control: 46%
[5]; 21 DAT
  Percent Control: 43%
[5]; 28 DAT
  Percent Control: 41%
[5]; 41 DAT
  Percent Control: 37%
Crabgrass (Digitaria sp); 0.25 lb ai/acre, 2 DAT
  Percent Control: 10%
Crabgrass (Digitaria sp); 0.25 lb ai/acre, 7 DAT
  Percent Control: 20%
Crabgrass (Digitaria sp); 0.25 lb ai/acre, 14 DAT
  Percent Control: 20%
Crabgrass (Digitaria sp); 0.25 lb ai/acre, 20 DAT
  Percent Control: 10%
Crabgrass (Digitaria sp); 0.5 lb ai/acre, 2 DAT
  Percent Control: 0%
Crabgrass (Digitaria sp); 0.5 lb ai/acre, 7 DAT
  Percent Control: 10%
Crabgrass (Digitaria sp); 0.5 lb ai/acre, 14 DAT
  Percent Control: 60%
Crabgrass (Digitaria sp); 0.5 lb ai/acre, 20 DAT
  Percent Control: 50%
Crabgrass (Digitaria sp); 0.75 lb ai/acre, 2 DAT
  Percent Control: 0%
Crabgrass (Digitaria sp); 0.75 lb ai/acre, 7 DAT
  Percent Control: 0%
Crabgrass (Digitaria sp); 0.75 lb ai/acre, 14 DAT
  Percent Control: 60%
Crabgrass (Digitaria sp); 0.75 lb ai/acre, 20 DAT
  Percent Control: 50%
Crabgrass (Digitaria sp); 1.0 lb ai/acre, 2 DAT
  Percent Control: 0%
Crabgrass (Digitaria sp); 1.0 lb ai/acre, 7 DAT
  Percent Control: 10%
Crabgrass (Digitaria sp); 1.0 lb ai/acre, 14 DAT
  Percent Control: 60%
Crabgrass (Digitaria sp); 1.0 lb ai/acre, 20 DAT
  Percent Control: 70%
Crabgrass (Digitaria sp); 1.25 lb ai/acre, 2 DAT
  Percent Control: 0%
Crabgrass (Digitaria sp); 1.25 lb ai/acre, 7 DAT
  Percent Control: 10%
Crabgrass (Digitaria sp); 1.25 lb ai/acre, 14 DAT
  Percent Control: 60%
Crabgrass (Digitaria sp); 1.25 lb ai/acre, 20 DAT
  Percent Control: 70%
Kochia (Kochia scoparia); 0.25 lb ai/acre, 2 DAT
  Percent Control: 0%
Kochia (Kochia scoparia); 0.25 lb ai/acre, 7 DAT
  Percent Control: 0%
Kochia (Kochia scoparia); 0.25 lb ai/acre, 14 DAT
  Percent Control: 5%
Kochia (Kochia scoparia); 0.25 lb ai/acre, 20 DAT
  Percent Control: 5%
Kochia (Kochia scoparia); 0.5 lb ai/acre, 2 DAT
  Percent Control: 0%
Kochia (Kochia scoparia); 0.5 lb ai/acre, 7 DAT
  Percent Control: 0%
Kochia (Kochia scoparia); 0.5 lb ai/acre, 14 DAT
  Percent Control: 20%
Kochia (Kochia scoparia); 0.5 lb ai/acre, 20 DAT
  Percent Control: 20%
Kochia (Kochia scoparia); 0.75 lb ai/acre, 2 DAT
  Percent Control: 0%
Kochia (Kochia scoparia); 0.75 lb ai/acre, 7 DAT
  Percent Control: 0%
Kochia (Kochia scoparia); 0.75 lb ai/acre, 14 DAT
  Percent Control: 10%
Kochia (Kochia scoparia); 0.75 lb ai/acre, 20 DAT
  Percent Control: 5%
Kochia (Kochia scoparia); 1.0 lb ai/acre, 2 DAT
  Percent Control: 0%
Kochia (Kochia scoparia); 1.0 lb ai/acre, 7 DAT
  Percent Control: 0%
Kochia (Kochia scoparia); 1.0 lb ai/acre, 14 DAT
  Percent Control: 10%
Kochia (Kochia scoparia); 1.0 lb ai/acre, 20 DAT
  Percent Control: 20%
Kochia (Kochia scoparia); 1.25 lb ai/acre, 2 DAT
  Percent Control: 0%
Kochia (Kochia scoparia); 1.25 lb ai/acre, 7 DAT
  Percent Control: 0%
Kochia (Kochia scoparia); 1.25 lb ai/acre, 14 DAT
  Percent Control: 10%
Kochia (Kochia scoparia); 1.25 lb ai/acre, 20 DAT
  Percent Control: 10%
[6]; 7 DAT
  Percent Control: 83%
[6]; 14 DAT
  Percent Control: 100%
[6]; 21 DAT
  Percent Control: 100%
[7]; 0.25 lb ai/acre, 2 DAT
  Percent Control: 20%
[7]; 0.25 lb ai/acre, 7 DAT
  Percent Control: 25%
[7]; 0.25 lb ai/acre, 14 DAT
  Percent Control: 60%
[7]; 0.25 lb ai/acre, 20 DAT
  Percent Control: 70%
[7]; 0.5 lb ai/acre, 2 DAT
  Percent Control: 20%
[7]; 0.5 lb ai/acre, 7 DAT
  Percent Control: 25%
[7]; 0.5 lb ai/acre, 14 DAT
  Percent Control: 40%
[7]; 0.5 lb ai/acre, 20 DAT
  Percent Control: 50%
[7]; 0.75 lb ai/acre, 2 DAT
  Percent Control: 20%
[7]; 0.75 lb ai/acre, 7 DAT
  Percent Control: 25%
[7]; 0.75 lb ai/acre, 14 DAT
  Percent Control: 40%
[7]; 0.75 lb ai/acre, 20 DAT
  Percent Control: 50%
[7]; 1.0 lb ai/acre, 2 DAT
  Percent Control: 20%
[7]; 1.0 lb ai/acre, 7 DAT
  Percent Control: 25%
[7]; 1.0 lb ai/acre, 14 DAT
  Percent Control: 50%
[7]; 1.0 lb ai/acre, 20 DAT
  Percent Control: 70%
[7]; 1.25 lb ai/acre, 2 DAT
  Percent Control: 20%
[7]; 1.25 lb ai/acre, 7 DAT
  Percent Control: 25%
[7]; 1.25 lb ai/acre, 14 DAT
  Percent Control: 40%
[7]; 1.25 lb ai/acre, 20 DAT
  Percent Control: 50%
[8]; 7 DAT
  Percent Control: 54%
[8]; 14 DAT
  Percent Control: 66%
[8]; 21 DAT
  Percent Control: 67%

Reference: patent publication US10897901B2, “Herbicidal composition” (FMC Corporation, priority 2007, dated 2021)
